Test system: patients with Acute Decompensated Heart Failure
Assay: Clinical study of istaroxime 24 h i.v. infusion in Acute Decompensated Heart Failure, echocardiography
Format: in vivo, human
Procedure: Echocardiography was performed on patients according to international standards (see, for example, Lang R M et al., J Am Soc Echocardiogr 2005; 18(12):1440-63; Nagueh S F et al., Eur J Echocardiogr 2009; 10(2):165-93; Evangelista A et al., Eur J Echocardiogr 2008; 9(4):438-48). Echocardiography was performed by expert physicians or sonographers at the sites. Echocardiography was done at screening, baseline, 6 hours after infusion start, 24 hours after infusion start (just before the end of infusion), and 48 hours after infusion start.
The following parameters were recorded for each patient at each timepoint and centrally measured by the CoreLab: • 1. Cardiac dimension measures: • a. Left ventricle end diastolic diameter (EDD): measured with M-mode echocardiography at the level of mitral valve (MV) leaflets from parasternal long axis view (PLAX) (normal range [NR]: 42-59 mm males and 39-53 mm females); • b. Left ventricle end systolic diameter (ESD): measured with M-mode echocardiography at the level of mitral valve (MV) leaflets from PLAX (NR: 25-35 mm); • c. Left ventricle end diastolic volume (EDV): measured with M-mode echocardiography at the level of mitral valve (MV) leaflets from PLAX (NR: 67-155 mL males and 56-104 mL females); • d. Left ventricle end systolic volume (ESV): measured with M-mode echocardiography at the level of mitral valve (MV) leaflets from PLAX (NR: 22-58 mL males and 19-49 mL females); • e. Left atrium diameter (LAD): measured at end-ventricular systole with M-mode echocardiography from PLAX. (NR: 30-40 mm males and 27-38 mm females) • f. Left atrium area (LAA): measured from apical four chamber view ([…]); and • g. Left atrium volume (LAV): derived from area-length measured from apical four chamber view (NR: 18-58 mL males and 22-52 mL females). • 2. Left ventricle diastolic function parameters: • a. E wave: measured from mitral valve pulsed wave Doppler, is the peak velocity of early filling. […] A wave: measured from mitral valve pulsed wave Doppler is the peak velocity of late atrial filling. Not evaluable in patients with AF; • c. E wave deceleration time (EDT): measured from mitral valve pulsed wave Doppler represent the slope of the descending part of E wave; • d. E/A ratio: determines the type of diastolic filling pattern (normal E/A=1-2 and EDT=150-200 ms, abnormal relaxation E/A<1 and […], pseudonormal E/A=0.8-1.5; restrictive […] and EDT<160 ms). Not evaluable in patients with AF; • e. Ea: measured with tissue Doppler method at the lateral and septal side of the mitral annulus from apical four chamber view is the early diastolic velocity. The value has been calculated as the average between Ea lateral and Ea septal. ([…]) (see Nagueh S F et al., Eur J Echocardiogr. 2009; 10(2):165-93); • f. Aa: measured with tissue Doppler method at the lateral and septal side of the mitral annulus from apical four chamber view is the late atrial diastolic velocity. The value has been calculated as the average between Aa lateral and Aa septal. Not evaluable in patients with AF; and • g. E/Ea ratio: this is a derived measure from E and Ea value. This is highly correlated with left ventricle filling pressure and with prognosis in patients with HF. (NR: <13) (see Nagueh S F et al., supra). • 3. Left ventricle systolic function parameters: • a. Left ventricle ejection fraction (LVEF): measured with Simpson biplane method according to international recommendations from apical four chamber view and apical two chamber view. ([…]) (see Lang R M et al., J Am Soc Echocardiogr. 2005; 18(12):1440-63); and • b. Sa: measured with tissue Doppler method at the lateral and septal side of the mitral annulus from apical four chamber view. The value has been calculated as the average between Sa lateral and Sa septal. […] Overall cardiac contraction parameters: • a. […]

[1] = 0.5 μg/kg/min i.v. for 24 h, at 48 hours
[2] = 0.5 μg/kg/min i.v., at 6 hours of infusion
[3] = 0.5 μg/kg/min i.v., at 24 hours of infusion
[4] = 1.0 μg/kg/min i.v. for 24 h, at 48 hours
[5] = 1.0 μg/kg/min i.v., at 6 hours of infusion
[6] = 1.0 μg/kg/min i.v., at 24 hours of infusion

C[C@]12CCC(=NOCCN)C[C@@H]1C(=O)C[C@@H]1[C@@H]2CC[C@]2(C)C(=O)CC[C@@H]12 [Istaroxime, (3Z,5a)-3-[(2-aminoethoxy)imino]androstane-6,17-dione]
CI change [1]: 0.191 ± 0.426 l/min/m^2 | CO change [1]: 0.350 ± 0.788 L/min | E/A ratio change [1]: −0.278 ± 1.043 | E/e′ ratio change [1]: −2.570 ± 3.654 | LVEF change [1]: 1.28 ± 3.693% | SV change [1]: 4.815 ± 9.832 ml/beat | SVI change [1]: 2.762 ± 5.603 ml/beat/m^2 | Sa change [1]: 0.224 ± 0.811 cm/s | A wave change [2]: 1.76 ± 13.572 cm/s | CI change [2]: 0.209 ± 0.445 l/min/m2 | CO change [2]: 0.385 ± 0.843 L/min | E wave change [2]: -3.33 ± 14.764 cm/s | E/A ratio change [2]: −0.286 ± 0.866 | E/e′ ratio change [2]: −3.183 ± 5.628 | EDT change [2]: 6.83 ± 47.921 ms | LAA change [2]: −0.33 ± 1.885 cm^2 | LAV change [2]: -1.16 ± 11.265 mL | S Right V change [2]: 1.25 ± 2.185 cm/s | SV change [2]: 7.724 ± 11.752 ml/beat | SVI change [2]: 4.198 ± 6.218 ml/beat/m2 | Sa Left V change [2]: 0.613 ± 1.035 cm/s | e′ change [2]: 0.61 ± 1.010 cm/s | A wave change [3]: 5.13 ± 10.990 cm/s | CI change [3]: 0.264 ± 0.369 l/min/m2 | CO change [3]: 0.486 ± 0.696 L/min | E wave change [3]: -8.14 ± 17.640 cm/s | E/A ratio change [3]: −0.647 ± 0.812 | E/e′ ratio change [3]: −4.548 ± 4.754 | EDT change [3]: 12.88 ± 54.954 ms | LAA change [3]: −1.70 ± 2.463 cm^2 | LAV change [3]: -7.94 ± 13.269 mL | S Right V change [3]: 1.10 ± 1.780 cm/s | SV change [3]: 9.725 ± 12.192 ml/beat | SVI change [3]: 5.333 ± 6.664 ml/beat/m2 | Sa Left V change [3]: 0.679 ± 0.907 cm/s | e′ change [3]: 0.94 ± 1.089 cm/s | CI change [4]: 0.205 ± 0.407 l/min/m^2 | CO change [4]: 0.368 ± 0.735 L/min | E/A ratio change [4]: −0.356 ± 0.967 | E/e′ ratio change [4]: −2.218 ± 3.193 | LVEF change [4]: 2.06 ± 4.975% | SV change [4]: 5.203 ± 8.078 ml/beat | SVI change [4]: 2.913 ± 4.572 ml/beat/m^2 | Sa change [4]: 0.257 ± 0.771 cm/s | A wave change [5]: 5.56 ± 17.280 cm/s | CI change [5]: 0.140 ± 0.434 l/min/m2 | CO change [5]: 0.228 ± 0.760 L/min | E wave change [5]: -9.13 ± 17.464 cm/s | E/A ratio change [5]: −0.317 ± 0.898 | E/e′ ratio change [5]: −2.028 ± 3.652 | EDT change [5]: 20.37 ± 50.849 ms | LAA change [5]: −0.84 ± 2.421 cm^2 | LAV change [5]: -4.92 ± 14.390 mL | S Right V change [5]: 2.00 ± 1.907 cm/s | SV change [5]: 7.269 ± 8.134 ml/beat | SVI change [5]: 4.187 ± 4.641 ml/beat/m2 | Sa Left V change [5]: 0.908 ± 0.936 cm/s | e′ change [5]: 0.01 ± 1.154 cm/s | A wave change [6]: 11.10 ± 16.498 cm/s | CI change [6]: 0.140 ± 0.443 l/min/m2 | CO change [6]: 0.239 ± 0.786 L/min | E wave change [6]: -14.24 ± 24.416 cm/s | E/A ratio change [6]: −0.722 ± 1.068 | E/e′ ratio change [6]: −3.191 ± 2.623 | EDT change [6]: 9.79 ± 52.212 ms | LAA change [6]: −2.56 ± 2.972 cm^2 | LAV change [6]: -13.81 ± 17.198 mL | S Right V change [6]: 1.55 ± 2.012 cm/s | SV change [6]: 9.339 ± 8.875 ml/beat | SVI change [6]: 5.318 ± 4.955 ml/beat/m2 | Sa Left V change [6]: 0.803 ± 1.023 cm/s | e′ change [6]: 0.91 ± 1.792 cm/s

Source: US12343350B2, “Istaroxime-containing intravenous formulation for the treatment of acute heart failure (AHF)” (Windtree Therapeutics, Inc., priority 2019, dated 2025)
